Laboratory results as given in article PMC6039321 (International Journal for Parasitology: Drugs and Drug …, 2018).
Like-named read-outs stand apart in the source and are kept apart here.

Assays:
cytbc1 = cytbc1 (Plasmodium falciparum, UniProt Q02768); assay: Enzymatic cytbc1 activity; assay type: biochemical, P. falciparum K1 strain; details: for % Inhibition Cytbc1 biochemical assay, 5 μM: compound at 5 μM, P. falciparum mitochondria, atovaquone 100% inhibition control
P. yoelii (17XL) = assay: microbe, parasite or virus in culture; assay type: cell-based, Plasmodium yoelii; details: for IC50: read-out: OCA P. yoelii IC50
HEK 293 cells = assay type: cell-based, H. sapiens; details: for IC50: read-out: OCA HEK 293 IC50, Table 4
P. falciparum (K1) = assay type: cell-based, Plasmodium falciparum

Chain of cytbc1 (Q02768 whole entry): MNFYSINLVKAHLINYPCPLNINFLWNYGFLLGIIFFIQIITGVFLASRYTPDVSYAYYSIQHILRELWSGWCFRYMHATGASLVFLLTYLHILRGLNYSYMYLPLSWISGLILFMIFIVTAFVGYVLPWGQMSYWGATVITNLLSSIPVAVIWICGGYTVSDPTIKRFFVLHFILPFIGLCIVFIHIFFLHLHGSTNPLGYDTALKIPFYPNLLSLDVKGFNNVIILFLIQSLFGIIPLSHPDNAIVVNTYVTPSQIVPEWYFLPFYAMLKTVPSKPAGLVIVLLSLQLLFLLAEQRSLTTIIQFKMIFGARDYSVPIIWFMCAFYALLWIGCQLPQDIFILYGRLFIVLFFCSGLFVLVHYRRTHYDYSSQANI

Structure (SMILES)	% Inhibition Cytbc1 biochemical assay, 5 μM (cytbc1) [%]	IC50 (P. yoelii (17XL); Table 4) [nM]	IC50 (HEK 293 cells) [nM]	also measured
O=C(Nc1ccccc1O)c1ccc(S(=O)(=O)c2ccc(Cl)cc2)cc1 [TCMDC-123689]	99.84 ± 2.22	8190 ± 1260	> 10000	–
C=C(C)[C@H]1Cc2c(ccc3c2O[C@@H]2COc4cc(OC)c(OC)cc4[C@@H]2C3=O)O1 [Rotenone, reference compound]	–	–	–	inhibition of oxygen consumption signal in HEK 293 cells (HEK 293 cells; rotenone at 2.5 μM, 6.5·10^5 HEK 293 cells (Fig. 2A)): completely inhibited
C/C=C(C)/C=C/C=C/[C@H](OC)[C@@H](C)[C@@H](OC)[C@@H](C)CCc1oc2c(O)c(OC)cc(OC)c2c(=O)c1C [Stigmatellin]	–	–	–	Selectivity (P. falciparum vs H. sapiens) (P. falciparum (K1); ratio of OCA IC50 HEK 293 / P. falciparum K1): 0.015
O=C1C(O)=C([C@H]2CC[C@H](c3ccc(Cl)cc3)CC2)C(=O)c2ccccc21 [Atovaquone, reference compound]	–	–	–	inhibition at 0.5 µM (cytbc1; read-out: % Inhibition Cytbc1 biochemical assay, 0.5 μM): 105 ± 8.26%; inhibition at 5 µM (cytbc1; read-out: % Inhibition Cytbc1 biochemical assay, 5 μM): 101 ± 9.82%; inhibition of oxygen consumption signal in Plasmodium cells (P. yoelii (17XL); 1.25 μM atovaquone, 2·10^7 P. yoelii cells (Fig. 2B)): completely inhibited; IC50 (P. yoelii (17XL); Plasmodium yoelii): 5 ± 1 nM
N#CC(C#N)=NNc1ccc(OC(F)(F)F)cc1 [FCCP, carbonyl cyanide 4-(trifluoromethoxy)phenylhydrazone]	–	–	–	Selectivity (P. falciparum vs H. sapiens) (P. falciparum (K1)): 1.93

More lines, main results first:

% Inhibition Cytbc1 biochemical assay, 5 μM (cytbc1) [%]	IC50 (P. yoelii (17XL); Table 4) [nM]	Structure (SMILES)	IC50 (HEK 293 cells) [nM]	also measured
100.30 ± 2.14	292 ± 249	c1ccc(CCNc2ncnc3c2[nH]c2ccccc23)cc1 [TCMDC-124578]	7520 ± 500	–
77.11 ± 12.20	1100 ± 131	Cc1cccc(-c2nn(-c3ccccc3)cc2C(=O)Nc2nnc(C)o2)c1 [TCMDC-125039]	> 10000	–
50.34 ± 6.78	1320 ± 860	Clc1cccc(Nc2ccc3c(N4CCCCC4)ncnc3n2)c1 [TCMDC-134937]	> 10000	–
91.48 ± 7.57	514 ± 225	COCCN(C)c1ccc(C(=O)Nc2ccccc2)cc1NS(=O)(=O)Cc1ccccc1.O=C(O)C(F)(F)F [TCMDC-134575]	> 10000	–
59.97 ± 8.70	760 ± 109	COc1ccc(NS(=O)(=O)c2cc(NC(=O)Cn3ccccc3=O)ccc2N2CCCCC2)cc1 [TCMDC-124874]	> 10000	–
89.93 ± 9.67	2200 ± 1950	Cc1cccc2nc(-c3ccc(-c4ccc(CN5CC(C)OC(C)C5)cc4)cc3)[nH]c12.O=C(O)C(F)(F)F (stereo not shown) [TCMDC-133823]	> 10000	–
